Paper PMC6858497 (The Journal of physiology, 2019)
Several values for one entry are separate records, joined by “and”; a condition that tells them apart may be missing. Equal values may be shown once.

Tests used:
Type in all cases: cell-based
GluN1–1a/2B = GluN1–1a/2B (Rattus norvegicus, UniProt P35439+Q00960); assay: Two-electrode voltage-clamp recordings, Xenopus oocytes; details: agonist concentration-response, isoform 1a
GluN1–1a/2BC1/2DC2 = GluN1–1a/2BC1/2DC2 (Rattus norvegicus, UniProt P35439+Q00959+Q00960+Q62645, A876H/F846L/G856D/H848F/K857R/M851T/M860L/Q845K/R869K/V861L/V866F); assay: as above; details: agonist concentration-response, isoform 1a
GluN1–1a/2D = GluN1–1a/2D (Rattus norvegicus, UniProt P35439+Q62645); assay: as above
Sequence of GluN1–1a/2D (Q62645 28-1323, other chains not shown): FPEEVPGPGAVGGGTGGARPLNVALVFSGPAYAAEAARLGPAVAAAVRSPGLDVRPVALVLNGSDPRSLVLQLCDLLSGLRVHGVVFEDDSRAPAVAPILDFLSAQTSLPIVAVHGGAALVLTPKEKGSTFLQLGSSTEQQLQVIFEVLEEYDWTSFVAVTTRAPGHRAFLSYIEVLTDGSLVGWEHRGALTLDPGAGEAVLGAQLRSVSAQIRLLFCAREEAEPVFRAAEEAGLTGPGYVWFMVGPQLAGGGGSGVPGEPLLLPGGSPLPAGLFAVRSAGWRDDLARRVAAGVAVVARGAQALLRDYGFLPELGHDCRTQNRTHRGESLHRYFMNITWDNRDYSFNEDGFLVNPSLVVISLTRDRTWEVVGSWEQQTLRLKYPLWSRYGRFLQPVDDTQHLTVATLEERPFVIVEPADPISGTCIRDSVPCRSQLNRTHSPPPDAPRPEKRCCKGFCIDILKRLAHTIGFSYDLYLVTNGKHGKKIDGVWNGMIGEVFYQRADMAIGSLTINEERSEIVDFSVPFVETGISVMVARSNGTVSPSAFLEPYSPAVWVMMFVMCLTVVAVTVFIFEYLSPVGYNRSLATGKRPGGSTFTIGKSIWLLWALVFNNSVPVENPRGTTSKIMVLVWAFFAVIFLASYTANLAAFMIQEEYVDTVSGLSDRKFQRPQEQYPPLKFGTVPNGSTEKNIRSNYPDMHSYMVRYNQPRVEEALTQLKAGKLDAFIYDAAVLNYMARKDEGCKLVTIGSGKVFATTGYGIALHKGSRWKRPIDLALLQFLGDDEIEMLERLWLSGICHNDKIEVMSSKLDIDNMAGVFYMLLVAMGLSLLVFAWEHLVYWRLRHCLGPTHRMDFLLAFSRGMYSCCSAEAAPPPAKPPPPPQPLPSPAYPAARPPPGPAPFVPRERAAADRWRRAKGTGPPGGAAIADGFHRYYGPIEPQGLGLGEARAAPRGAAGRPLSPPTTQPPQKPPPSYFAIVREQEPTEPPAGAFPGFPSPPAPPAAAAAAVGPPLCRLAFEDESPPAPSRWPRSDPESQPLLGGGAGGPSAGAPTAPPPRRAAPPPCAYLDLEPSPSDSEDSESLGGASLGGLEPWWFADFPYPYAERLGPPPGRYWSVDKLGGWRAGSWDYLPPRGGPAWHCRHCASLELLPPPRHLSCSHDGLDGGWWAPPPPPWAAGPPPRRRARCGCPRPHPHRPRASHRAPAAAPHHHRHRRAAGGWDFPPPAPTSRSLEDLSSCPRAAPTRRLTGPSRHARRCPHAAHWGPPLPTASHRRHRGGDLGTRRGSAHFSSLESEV

[1] = biological target: GluN1–1a A/A (GluN1/2A/2A) (Rattus norvegicus, UniProt P35439+Q00959); assay: Outside-out patch-clamp recordings, fast application
[2] = biological target: GluN1–1a AC1/AC2 (GluN1/2AC1/2AC2) (Rattus norvegicus, UniProt P35439+Q00959); assay: as above
GluN1–1a AC1/BC2 = GluN1–1a AC1/BC2 (Rattus norvegicus, UniProt P35439+Q00959+Q00960, A876H/F846L/G856D/H848F/K857R/M851T/M860L/Q845K/V861L); assay: as above
GluN1–1a B/B = GluN1–1a B/B (Rattus norvegicus, UniProt P35439+Q00960); assay: as above
Sequence of GluN1–1a B/B (Q00960 27-1482, other chains not shown): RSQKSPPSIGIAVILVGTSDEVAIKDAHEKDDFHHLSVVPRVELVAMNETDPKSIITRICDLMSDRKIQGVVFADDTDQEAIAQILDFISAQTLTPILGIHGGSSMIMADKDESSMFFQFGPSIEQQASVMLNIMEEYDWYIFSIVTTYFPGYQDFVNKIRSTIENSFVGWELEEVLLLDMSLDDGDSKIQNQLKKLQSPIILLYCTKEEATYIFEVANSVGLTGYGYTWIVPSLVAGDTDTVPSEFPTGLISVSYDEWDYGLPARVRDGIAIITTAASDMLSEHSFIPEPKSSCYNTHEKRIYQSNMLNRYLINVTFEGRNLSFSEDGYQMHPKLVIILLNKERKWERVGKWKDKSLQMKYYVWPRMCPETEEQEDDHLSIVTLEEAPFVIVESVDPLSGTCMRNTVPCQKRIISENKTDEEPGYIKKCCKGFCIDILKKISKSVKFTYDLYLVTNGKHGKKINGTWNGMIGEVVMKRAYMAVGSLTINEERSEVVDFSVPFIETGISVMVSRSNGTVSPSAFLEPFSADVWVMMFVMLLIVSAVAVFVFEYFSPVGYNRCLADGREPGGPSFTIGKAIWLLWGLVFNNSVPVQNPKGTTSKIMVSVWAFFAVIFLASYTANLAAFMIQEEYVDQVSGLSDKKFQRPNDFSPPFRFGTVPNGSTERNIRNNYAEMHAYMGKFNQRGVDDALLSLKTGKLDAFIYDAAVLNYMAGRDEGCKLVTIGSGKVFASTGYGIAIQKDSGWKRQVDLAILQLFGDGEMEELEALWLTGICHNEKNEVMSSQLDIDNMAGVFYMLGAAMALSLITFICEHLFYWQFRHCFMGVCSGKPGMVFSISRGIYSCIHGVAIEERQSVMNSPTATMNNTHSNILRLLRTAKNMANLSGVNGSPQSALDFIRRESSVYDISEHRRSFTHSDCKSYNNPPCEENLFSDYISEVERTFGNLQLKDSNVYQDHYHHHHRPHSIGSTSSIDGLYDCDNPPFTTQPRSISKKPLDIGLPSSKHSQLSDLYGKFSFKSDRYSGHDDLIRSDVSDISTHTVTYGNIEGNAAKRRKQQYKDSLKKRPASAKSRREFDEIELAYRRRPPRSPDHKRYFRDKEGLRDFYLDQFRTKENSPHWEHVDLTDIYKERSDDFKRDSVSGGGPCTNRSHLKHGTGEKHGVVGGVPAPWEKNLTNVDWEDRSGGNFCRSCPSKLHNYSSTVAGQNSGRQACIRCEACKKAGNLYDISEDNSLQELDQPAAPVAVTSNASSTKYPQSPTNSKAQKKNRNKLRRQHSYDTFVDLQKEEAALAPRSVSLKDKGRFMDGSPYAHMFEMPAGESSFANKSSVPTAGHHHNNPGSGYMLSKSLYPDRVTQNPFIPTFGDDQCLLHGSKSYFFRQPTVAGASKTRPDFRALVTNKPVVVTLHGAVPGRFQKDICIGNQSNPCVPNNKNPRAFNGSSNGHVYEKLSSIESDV

GluN1–1a BC1/BC2 = GluN1–1a BC1/BC2 (Rattus norvegicus, UniProt P35439+Q00959+Q00960, A876H/F846L/G856D/H848F/K857R/M851T/M860L/Q845K/V861L); assay: as above
GluN1–1a BC1/DC2 = GluN1–1a BC1/DC2 (Rattus norvegicus, UniProt P35439+Q00959+Q00960+Q62645, A876H/F846L/G856D/H848F/K857R/M851T/M860L/Q845K/R869K/V861L/V866F); assay: as above
GluN1–1a D/D = GluN1–1a D/D (Rattus norvegicus, UniProt P35439+Q62645); assay: as above
Sequence of GluN1–1a D/D (Q62645 28-1323, other chains not shown): as the sequence (Q62645 28-1323, other chains not shown) above

GluN1–1a DC1/DC2 = GluN1–1a DC1/DC2 (Rattus norvegicus, UniProt P35439+Q00959+Q62645, R869K/V866F); assay: as above
[3] = biological target: GluN1–1b A/A (GluN1/2A/2A) (Rattus norvegicus, UniProt P35439+Q00959); assay: as above
GluN1–1b AC1/AC2 = GluN1–1b AC1/AC2 (Rattus norvegicus, UniProt P35439+Q00959); assay: as above
GluN1–1b AC1/BC2 = GluN1–1b AC1/BC2 (Rattus norvegicus, UniProt P35439+Q00959+Q00960, A876H/F846L/G856D/H848F/K857R/M851T/M860L/Q845K/V861L); assay: as above
GluN1–1b B/B = GluN1–1b B/B (Rattus norvegicus, UniProt P35439+Q00960); assay: as above
Sequence of GluN1–1b B/B (Q00960 27-1482, other chains not shown): as the sequence (Q00960 27-1482, other chains not shown) above

GluN1–1b BC1/BC2 = GluN1–1b BC1/BC2 (Rattus norvegicus, UniProt P35439+Q00959+Q00960, A876H/F846L/G856D/H848F/K857R/M851T/M860L/Q845K/V861L); assay: as above
GluN1–1b BC1/DC2 = GluN1–1b BC1/DC2 (Rattus norvegicus, UniProt P35439+Q00959+Q00960+Q62645, A876H/F846L/G856D/H848F/K857R/M851T/M860L/Q845K/R869K/V861L/V866F); assay: as above
GluN1–1b D/D = GluN1–1b D/D (Rattus norvegicus, UniProt P35439+Q62645); assay: as above
Sequence of GluN1–1b D/D (Q62645 28-1323, other chains not shown): as the sequence (Q62645 28-1323, other chains not shown) above

GluN1–1b DC1/DC2 = GluN1–1b DC1/DC2 (Rattus norvegicus, UniProt P35439+Q00959+Q62645, R869K/V866F); assay: as above
[4] = 1 mM glutamate 3–5 ms, 100 μM glycine
[5] = weighted deactivation time constant
[6] = deactivation, single-exponential fit
[7] = deactivation, two-exponential fit
[8] = fitted percentage of the fast component

N[C@@H](CCC(=O)O)C(=O)O [glutamate]
nH (Hill coefficient) (GluN1–1a/2B): 1.6 | nH (Hill coefficient) (GluN1–1a/2BC1/2DC2): 1.4 | EC50 (GluN1–1a/2D; GluN1 isoform 1a, glutamate with 100 μM glycine, glycine with 300 μM glutamate): 270 ± 10 nM | nH (Hill coefficient) (GluN1–1a/2D; agonist concentration-response, isoform 1a): 1.7 | rise time (10–90%) [1, 4]: 3.9 ± 0.3 ms | τfast ([1]; deactivation, single-exponential fit, 1 mM glutamate 3–5 ms, 100 μM glycine): 87 ± 7 ms | τw [1, 5]: 87 ± 7^#,$ ms | rise time (10–90%) [2, 4]: 4.2 ± 0.9 ms | τfast [2, 6]: 78 ± 13 ms | τw [2, 5]: 78 ± 13 ^*^,#,$ ms | rise time (10–90%) (GluN1–1a AC1/BC2; [4]): 10.9 ± 6.2 ms | τfast (GluN1–1a AC1/BC2; [7]): 93 ± 27 ms | τslow (GluN1–1a AC1/BC2; [7]): 180 ± 62 ms | % fast (GluN1–1a AC1/BC2; [8]): 63 ± 19% | τw (GluN1–1a AC1/BC2; [5]): 140 ± 10 ^*^,#,$ ms | rise time (10–90%) (GluN1–1a B/B; [4]): 14.9 ± 1.2 ms | τfast (GluN1–1a B/B; [7]): 240 ± 23 ms | τslow (GluN1–1a B/B; [7]): 1020 ± 72 ms | % fast (GluN1–1a B/B; [8]): 59 ± 5% | τw (GluN1–1a B/B; [5]): 548 ± 45 ^*^,$ ms | rise time (10–90%) (GluN1–1a BC1/BC2; [4]): 15.1 ± 2.7 ms | τfast (GluN1–1a BC1/BC2; [7]): 205 ± 35 ms | τslow (GluN1–1a BC1/BC2; [7]): 1045 ± 129 ms | % fast (GluN1–1a BC1/BC2; [8]): 58 ± 8% | τw (GluN1–1a BC1/BC2; [5]): 530 ± 60 ms and 533 ± 58 ^*^,$ ms | rise time (10–90%) (GluN1–1a BC1/DC2; [4]): 10.9 ± 2.5 ms | τfast (GluN1–1a BC1/DC2; [7]): 516 ± 42 ms | τslow (GluN1–1a BC1/DC2; [7]): 3521 ± 446 ms | % fast (GluN1–1a BC1/DC2; [8]): 54 ± 6% | τw (GluN1–1a BC1/DC2; [5]): 1770 ± 120 ms and 1767 ± 117 ^*^,#,$ ms | rise time (10–90%) (GluN1–1a D/D; [4]): 6.2 ± 0.7 ms | τfast (GluN1–1a D/D; [7]): 832 ± 146 ms | τslow (GluN1–1a D/D; [7]): 7436 ± 890 ms | % fast (GluN1–1a D/D; [8]): 24 ± 3% | τw (GluN1–1a D/D; [5]): 5714 ± 458 ^*^,# ms | rise time (10–90%) (GluN1–1a DC1/DC2; [4]): 8.6 ± 4.8 ms | τfast (GluN1–1a DC1/DC2; [7]): 527 ± 225 ms | τslow (GluN1–1a DC1/DC2; [7]): 6912 ± 848 ms | % fast (GluN1–1a DC1/DC2; [8]): 17 ± 7% | τw (GluN1–1a DC1/DC2; [5]): 5700 ± 560 ms and 5700 ± 561 ^*^,# ms | rise time (10–90%) [3, 4]: 4.8 ± 0.3 ms | τfast [3, 6]: 56 ± 6 ms | τw [3, 5]: 56 ± 6^#,$ ms | rise time (10–90%) (GluN1–1b AC1/AC2; [4]): 6.3 ± 2.8 ms | τfast (GluN1–1b AC1/AC2; [6]): 53 ± 7 ms | τw (GluN1–1b AC1/AC2; [5]): 53 ± 7^#,$ ms | rise time (10–90%) (GluN1–1b AC1/BC2; [4]): 3.7 ± 0.5 ms | τfast (GluN1–1b AC1/BC2; [7]): 47 ± 4 ms | τslow (GluN1–1b AC1/BC2; [7]): 160 ± 25 ms | % fast (GluN1–1b AC1/BC2; [8]): 69 ± 12% | τw (GluN1–1b AC1/BC2; [5]): 74 ± 5 ^*^,#,$ ms | rise time (10–90%) (GluN1–1b B/B; [4]): 10.3 ± 1.5 ms | τfast (GluN1–1b B/B; [7]): 81 ± 8 ms | τslow (GluN1–1b B/B; [7]): 208 ± 49 ms | % fast (GluN1–1b B/B; [8]): 58 ± 12% | τw (GluN1–1b B/B; [5]): 155 ± 19 ^*^,$ ms | rise time (10–90%) (GluN1–1b BC1/BC2; [4]): 8.3 ± 1.6 ms | τfast (GluN1–1b BC1/BC2; [7]): 101 ± 15 ms | τslow (GluN1–1b BC1/BC2; [7]): 360 ± 89 ms | % fast (GluN1–1b BC1/BC2; [8]): 84 ± 6% | τw (GluN1–1b BC1/BC2; [5]): 140 ± 10 ms and 138 ± 13 ^*^,$ ms | rise time (10–90%) (GluN1–1b BC1/DC2; [4]): 9.2 ± 1.3 ms | τfast (GluN1–1b BC1/DC2; [7]): 127 ± 31 ms | τslow (GluN1–1b BC1/DC2; [7]): 634 ± 132 ms | % fast (GluN1–1b BC1/DC2; [8]): 50 ± 15% | τw (GluN1–1b BC1/DC2; [5]): 290 ± 120 ms and 288 ± 22 ^*^,#,$ ms | rise time (10–90%) (GluN1–1b D/D; [4]): 3.5 ± 0.4 ms | τfast (GluN1–1b D/D; [7]): 245 ± 32 ms | τslow (GluN1–1b D/D; [7]): 1609 ± 148 ms | % fast (GluN1–1b D/D; [8]): 40 ± 7% | τw (GluN1–1b D/D; [5]): 992 ± 68 ^*^,# ms | rise time (10–90%) (GluN1–1b DC1/DC2; [4]): 4.5 ± 0.7 ms | τfast (GluN1–1b DC1/DC2; [7]): 256 ± 92 ms | τslow (GluN1–1b DC1/DC2; [7]): 1399 ± 141 ms | % fast (GluN1–1b DC1/DC2; [8]): 14 ± 4% | τw (GluN1–1b DC1/DC2; [5]): 1230 ± 90 ms and 1230 ± 86 ^*^,# ms
